Reference: article PMC5522071, “Preclinical development of G1T38: A novel, potent and selective inhibitor of cyclin dependent kinases 4/6 for use as an oral antineoplastic in patients with CDK4/6 sensitive tumors” (Oncotarget, 2017)
Like-named read-outs stand apart in the source and are kept apart here.

Legend:
[1] = biological target: T1, CDK5/p25 (Homo sapiens, UniProt Q00535); type: biochemical; conditions: 12-point dose response, singlicate, at Km for ATP
T1 construct: purchased Nanosyn, Inc. (contract assay)
T1 sequence (Q00535 whole entry): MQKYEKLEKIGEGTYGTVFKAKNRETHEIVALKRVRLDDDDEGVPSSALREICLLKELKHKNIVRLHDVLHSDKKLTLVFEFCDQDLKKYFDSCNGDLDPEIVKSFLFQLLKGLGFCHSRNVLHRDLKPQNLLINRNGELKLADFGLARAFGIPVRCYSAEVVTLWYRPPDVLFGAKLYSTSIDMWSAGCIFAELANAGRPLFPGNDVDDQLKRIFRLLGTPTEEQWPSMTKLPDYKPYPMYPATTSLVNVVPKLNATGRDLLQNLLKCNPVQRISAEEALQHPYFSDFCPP
T1 sequence (Q15078 99-307 partner limits assumed): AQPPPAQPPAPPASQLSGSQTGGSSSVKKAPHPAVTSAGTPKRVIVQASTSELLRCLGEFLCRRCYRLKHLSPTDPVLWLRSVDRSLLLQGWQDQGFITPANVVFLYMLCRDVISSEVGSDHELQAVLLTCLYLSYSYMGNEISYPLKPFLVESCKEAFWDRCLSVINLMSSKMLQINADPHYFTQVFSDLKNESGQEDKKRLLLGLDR

[2] = tested on: CDK4/6-independent cell lines; assay: Cell proliferation, CellTiter-Glo, statement for the group; type: cell-based; conditions: read-out: inhibition of proliferation in CDK4/6-independent cell lines
Description: (§1) To assess the capacity of G1T38 to inhibit proliferation of tumor cell lines, a broad panel of CDK4/6 dependent and independent lines was evaluated using CellTiter Glo (Table 2).
(§2) SupT1, Daudi, MCF7, ZR-75-1, A2058, WM2664, and H69 cells were seeded at 1000 cells per well; MV-4-11 and BV173 cells were plated at 4000 cells per well; Tom-1 cells were plated at 8,000 cells per well; NALM-1 cells were plated at 20,000 cells per well in Costar 3903 96 well plates. After 24 hours, plates were dosed with G1T38 at a nine-point dose concentration from 10 μM to 1 nM. Cell viability was determined after four or six days using the CellTiter-Glo® assay (Promega; Madison, WI) following manufacturer's recommendations. Plates were processed on BioTek (Winooski, VT) Synergy2 multi-mode plate reader and data analyzed using GraphPad (San Diego, CA) Prism 5 statistical software.

[3] = tested on: neutrophils; assay: GLP 28-day toxicology study, CBC; type: in vivo, beagle dogs; conditions: 1, 2.5 and 5 mg/kg/day
Description: However, from 14 to 25 days, cells reached a steady state level, which was readily reversible once dosing was stopped (Figure 5E).
Beagle dogs (5/ sex) were dosed once daily for 28 consecutive days via oral gavage. The dose levels were 1, 2.5 and 5 mg/kg/day and administered at a dose volume of 5 mL/kg. Hematology samples (1ml/ time point) were collected in K3EDTA tubes twice pre-test and then on days 7, 14, 21, and 25 during the dosing period and on days 35, and 42 during the recovery period. Complete blood counts were performed and results reported. All studies were conducted utilizing methods and protocols in accordance with IACUC approval at MPI Research (Mattawan, MI).

[4] = tested on: WM2664 cells; assay: Cell cycle analysis (propidium iodide, flow cytometry); type: cell-based; conditions: for EC50: Homo sapiens, WM 266-4, read-out: EC50 of G1 arrest
Description: (§3) Next, we assessed the ability of G1T38 to elicit a G1 arrest in normal and tumorigenic CDK4/6-dependent (HS68, WM2664, respectively) and -independent tumorigenic (A2058) cell lines. […] In CDK4/6 independent cells, the compound had no effect on the percentage of S-phase cells (as shown by arrow in Supplementary Figure 1). A dose dependent increase of cells in the G1 phase of the cell cycle was observed when CDK4/6 dependent WM2664 cells were treated with G1T38 for 24 hours (Figure 1C). This arrest was maintained through 300 nM, more than 300x the biochemical IC50. […] The CDK4/6-independent cell line (A2058) was not affected by treatment with G1T38. […]
(§4) 100, 300 or 1000 nM) for 24 hours. Western blot method human breast cancer. […]
(§5) Cell cycle analysis Pharmaceuticals.
(§6) final concentration. […] The dose levels
(§7) cold methanol (Sigma) and stored at -20°C. […]
(§8) Albumin (BSA), Fraction V (Fisher Scientific).

[5] = tested on: A2058 cells; assay: as above; type: cell-based; conditions: CDK4/6 independent cells (A2058), 24 hours
Description: as §3, §4, §5, §6, §7, §8

[6] = tested on: Tom1; assay: Cell proliferation, CellTiter-Glo; type: cell-based; conditions: 144 h; Tom1, Ph1+ leukemia, RB +; four or six days; read-out: G1T38 EC50, growth inhibition
Description: as §1, §2

[7] = tested on: NALM1; assay: Cell proliferation, CellTiter-Glo; type: cell-based; conditions: 144 h; NALM1, Leukemia, RB -; four or six days; read-out: G1T38 EC50, growth inhibition
Description: as §1, §2

[8] = tested on: MV4-11; assay: Cell proliferation, CellTiter-Glo; type: cell-based; conditions: Homo sapiens, 144 h; MV4-11, B cell leukemia, RB +; four or six days; read-out: G1T38 EC50, growth inhibition
Description: as §1, §2

[9] = tested on: H69; assay: Cell proliferation, CellTiter-Glo; type: cell-based; conditions: Homo sapiens, NCI-H69, 144 h; H69, SCLC, RB -; four or six days; read-out: G1T38 EC50, growth inhibition
Description: as §1, §2

[10] = tested on: RB phosphorylation (Ser807/811) in WM2664 cells; assay: Western blot for pRb and total Rb; type: cell-based
Description: Once phosphorylated, RB dissociates from cell cycle-promoting transcription factors, allowing them to drive the G1 to S-phase transition. Therefore, CDK4/6 inhibition of RB phosphorylation will arrest cells in G1. To assess the effect of G1T38 on RB phosphorylation, WM2664 cells were treated with varying doses of G1T38 for 24 hours. After treatment, cells were harvested and phosphorylation of RB at the Ser807/811 sites was evaluated via immunoblotting. Phosphorylation of RB at Ser807/811 sites first requires binding of CDK4/6 [3] in order to progress into S-phase. […] To determine the kinetics of CDK4/6 inhibition on RB phosphorylation, WM2664 cells were treated with 300 nM G1T38 for 1, 4, 8, 16, and 24 hours.
WM2664 cells were either treated for dose response (3, 10, 30, 100, 300 or 1000 nM) for 24 hours or a time course (1, 4, 8, 16 or 24 hours) with 300 nM G1T38. Whole cell extracts were prepared using 1x radioimmunoprecipitation assay buffer (RIPA) (ThermoFisher) containing 1x HALT® protease and phosphatase inhibitors (ThermoFisher). Total protein concentration was determined by using the bicinchoninic acid (BCA) Protein Assay Kit (PIERCE/ ThermoFisher), according to manufacturer's instructions. 20 micrograms of protein were heat denatured for 10 minutes at 70°C and resolved by Novex® NuPAGE® SDS-PAGE gel system (ThermoFisher) at 200 volts, constant current and transferred to 0.45 μm nitrocellulose membrane (Life Technologies) in 1 x Transfer buffer (Life Technologies) plus 20% methanol (Sigma-Aldrich (St. Louis, MO) by electroblotting at 35 volts, constant current. Membranes were blocked in LiCor Membrane Blocking Buffer (Lincoln, NE) and incubated overnight with either rabbit anti-pRb (Ser807/811, CST-9308) antibody (Cell Signaling Technology (Danvers, MA) at a 1:500 dilution or mouse anti-Rb (CST-9309) at a 1:2,000 dilution and mouse α-tubulin (CST-3873) antibody (Cell Signaling Technology) at a 1:1,000 dilution, as a loading control. […] Blots were incubated for one hour, washed and imaged using LiCor ImageStudio software (Version 4.0.21).

[11] = tested on: castration resistant prostate cancer (CRPC) models; parameters: method as in Stice JP, Wardell SE, Norris, JD et al., in press; conditions: ref Stice JP, Wardell SE, Norris, JD et al., in press; cited from earlier work

In the case of `CC(C)N1CCN(c2ccc(Nc3ncc4cc5n(c4n3)C3(CCCCC3)CNC5=O)nc2)CC1.Cl.Cl` [G1T38, 2′-((5-(4-isopropylpiperazin-1-yl)pyridin-2-yl)amino)-7′, 8′dihydro-6′Hspiro[cyclohexane1,9′ pyrazino[1′,2′:1,5]pyrrolo[2,3-d]pyrimidin]-6′-one di-hydrochloride], the IC50 [1] is reported as 1200 nM, the EC50 [2] is reported as over 2500 nM and the “neutrophil course during 28 days daily oral treatment” value [3] is reported as “neutrophils decreased rapidly in a dose dependent manner during the first 14 days”. For the same compound, the “cytotoxicity (sub2N fraction)” value ([4]; HS68 and WM2664, at the concentrations tested) was “not cytotoxic”, the EC50 ([4]; CDK4/6 dependent cells, 24 hours (Figure 1C)) was about 20 nM and the EC50 ([4]; WM2664 cells, text of discussion) was 20 nM. The “effect on the percentage of S-phase cells” value [5] was “no effect”, the EC50 [6] was 232 nM and the EC50 [7] was over 10000 nM. For the same compound, the EC50 [8] was 23 nM, the EC50 [9] was 2920 nM and the “time to near complete inhibition of RB phosphorylation post-treatment” value ([10]; 300 nM) was at most 16 h. The “time to reduced RB phosphorylation post-treatment” value ([10]; 300 nM) was at most 1 h, the “inhibition of RB phosphorylation (figure legend)” value ([10]; 300 nM exposure, 24 hours) was “complete inhibition” and the “inhibition of RB phosphorylation compared to vehicle controls” value ([10]; 30-1000 nM, 24 hours) was “complete inhibition”. For the same compound, the “anti-tumor activity compared with docetaxel” value [11] was “equivalent anti-tumor activity”.
